Experimental data from US11753371B2 (BATTERJEE MEDICAL COLLEGE, priority 2021, dated 2023).

Experiments:
Format in all cases: biochemical
ALDH1a1 = ALDH1a1 (Homo sapiens (Human), UniProt P00352); experiment: ALDH assay (diaphorase/resazurin), ALDH1a1 inhibition
From the text: (§1) ALDH catalyzes the oxidation of acetaldehyde to acetic acid while reducing NAD+ to NADH. The formation of NADH is fluorescently detected using diaphorase/resazurin system. Diaphorase utilizes NADH formed from ALDH reaction to produce the fluorescent molecule resorufin from resazurin. See Davis, M. I.; Shen, M.; Simeonov, A.; Hall, M. D., Diaphorase Coupling Protocols for Red-Shifting Dehydrogenase Assays.
(§2) The reagent ALDH1a1 is from R&D Systems (Minneapolis, MN). ALDH2 is from Prospect Bio (East Brunswick, NJ). Acetaldehyde is from Cayman Chemicals (Ann Arbor, MI). NAD^+, and Resazurin sodium salt are from Sigma (St. Louis, MO). Diaphorase is from Reaction Biology (Malvern PA). Zaba micro spin columns are from ThermoFisher scientific (Waltham, MA). […] Desalted samples from each enzyme were pooled together and placed in ice until use. Reaction buffer (50 mM sodium pyrophosphate buffer at pH 8.8, 0.01% Brij35) degassed using vacuum for 10 mins until no visible air bubbles were seen.
(§3) 5 μl of reaction buffer was delivered to ‘no enzyme’ background control wells. Test compounds were prepared in 100% DMSO by serial dilution in 100× of assay concentration. After adding the test compounds, reaction plate was centrifuged briefly in 1200 rpm, then incubated for 20 min at room temperature, to pre-incubate enzyme and compounds. […] Reaction plate was briefly centrifuged and sealed with a plastic film to limit evaporation. After incubation at room temperature for 60 min, 10 μl of detection reagent (15 μg/ml diaphorase, 30 μM resazurin prepared in the degassed reaction buffer) was added. Reaction plate was briefly centrifuged and incubated for 10 minutes at room temperature in the dark.

ALDH2 = ALDH2 (Homo sapiens (Human), UniProt P05091); experiment: ALDH assay (diaphorase/resazurin), ALDH2 inhibition
Sequence of ALDH2 (P05091 18-517): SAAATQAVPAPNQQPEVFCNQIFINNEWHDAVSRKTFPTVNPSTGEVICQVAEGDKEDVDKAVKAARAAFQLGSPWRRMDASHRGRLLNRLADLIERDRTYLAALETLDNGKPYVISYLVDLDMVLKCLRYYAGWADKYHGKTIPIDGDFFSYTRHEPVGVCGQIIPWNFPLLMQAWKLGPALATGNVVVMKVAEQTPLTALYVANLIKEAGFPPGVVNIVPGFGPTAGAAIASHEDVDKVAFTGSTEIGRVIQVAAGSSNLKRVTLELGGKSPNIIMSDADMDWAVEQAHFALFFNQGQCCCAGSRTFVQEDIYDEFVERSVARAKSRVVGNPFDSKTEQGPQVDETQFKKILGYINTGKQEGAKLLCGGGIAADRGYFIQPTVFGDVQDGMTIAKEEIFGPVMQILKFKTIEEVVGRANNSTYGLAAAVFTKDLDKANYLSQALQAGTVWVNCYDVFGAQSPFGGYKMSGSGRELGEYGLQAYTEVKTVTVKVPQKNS
From the text: as §1, §2, §3

human FAAH (hFAAH) = human FAAH (hFAAH) (Homo sapiens (Human), UniProt O00519); experiment: FAAH enzyme inhibition assay (Cayman screening kit, AMC-arachidonoyl amide); set-up: key to IC50 (μM) ± SE (hFAAH): NI: no inhibition seen at the tested conditions
Sequence of human FAAH (hFAAH) (O00519 whole entry): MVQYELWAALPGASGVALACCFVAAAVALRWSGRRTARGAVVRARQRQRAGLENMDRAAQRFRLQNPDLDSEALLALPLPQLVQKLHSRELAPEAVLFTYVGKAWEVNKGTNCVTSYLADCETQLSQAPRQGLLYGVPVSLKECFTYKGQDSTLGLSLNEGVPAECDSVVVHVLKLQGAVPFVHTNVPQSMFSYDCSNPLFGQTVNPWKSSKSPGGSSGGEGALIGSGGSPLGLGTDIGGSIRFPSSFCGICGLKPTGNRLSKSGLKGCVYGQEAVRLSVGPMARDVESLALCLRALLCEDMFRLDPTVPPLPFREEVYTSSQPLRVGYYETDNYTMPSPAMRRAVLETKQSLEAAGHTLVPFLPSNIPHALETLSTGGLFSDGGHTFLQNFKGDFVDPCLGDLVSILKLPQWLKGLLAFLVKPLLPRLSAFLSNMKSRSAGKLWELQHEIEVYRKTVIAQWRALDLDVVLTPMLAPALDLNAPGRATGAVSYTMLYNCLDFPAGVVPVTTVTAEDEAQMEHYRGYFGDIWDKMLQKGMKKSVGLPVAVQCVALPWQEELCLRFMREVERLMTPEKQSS
Experimental: FAAH inhibition assay was performed using Fatty Acid Amide Hydrolase Inhibitor Screening Assay Kit (Item #10005196), Cayman (1180 E Ellsworth Rd Ann Arbor, MI, USA). […] Manufacturer's protocol was followed to perform the assay. The assay buffer (125 mM Tri-HCl with 1 mM EDTA, pH 9.0) was used to dilute the FAAH human recombinant enzyme. AMC-Arachidonoyl amide, at a concentration of 400 μM was then used as the FAAH substrate. Samples were mixed for 30 s and incubated at 37° C. for 30 min. The fluorescent by-product AMC (7-amino-4-methylcoumarin) released by the FAAH enzyme was detected and quantified at an excitation wavelength of 355 nm and emission wavelength of 460 nm.

human MAGL (hMAGL) = human MAGL (hMAGL) (Homo sapiens (Human), UniProt Q99685); experiment: MAGL enzyme inhibition assay (4-nitrophenylacetate); details: relative to disulfiram / unsubstituted analogue
Sequence of human MAGL (hMAGL) (Q99685 whole entry): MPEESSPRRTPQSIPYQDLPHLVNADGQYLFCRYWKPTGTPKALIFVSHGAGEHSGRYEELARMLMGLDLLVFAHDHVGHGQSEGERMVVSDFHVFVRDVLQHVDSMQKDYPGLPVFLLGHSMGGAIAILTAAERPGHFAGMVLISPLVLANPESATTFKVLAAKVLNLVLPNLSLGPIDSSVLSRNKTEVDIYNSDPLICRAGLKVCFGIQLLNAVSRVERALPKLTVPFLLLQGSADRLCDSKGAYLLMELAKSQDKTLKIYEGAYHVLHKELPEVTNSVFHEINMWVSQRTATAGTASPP
Experimental: The plate was mixed for 30 s and incubated at room temperature for 30 min.

[1] = Table II, average of at least two different experiments

Sequence of ALDH1a1 (P00352 whole entry): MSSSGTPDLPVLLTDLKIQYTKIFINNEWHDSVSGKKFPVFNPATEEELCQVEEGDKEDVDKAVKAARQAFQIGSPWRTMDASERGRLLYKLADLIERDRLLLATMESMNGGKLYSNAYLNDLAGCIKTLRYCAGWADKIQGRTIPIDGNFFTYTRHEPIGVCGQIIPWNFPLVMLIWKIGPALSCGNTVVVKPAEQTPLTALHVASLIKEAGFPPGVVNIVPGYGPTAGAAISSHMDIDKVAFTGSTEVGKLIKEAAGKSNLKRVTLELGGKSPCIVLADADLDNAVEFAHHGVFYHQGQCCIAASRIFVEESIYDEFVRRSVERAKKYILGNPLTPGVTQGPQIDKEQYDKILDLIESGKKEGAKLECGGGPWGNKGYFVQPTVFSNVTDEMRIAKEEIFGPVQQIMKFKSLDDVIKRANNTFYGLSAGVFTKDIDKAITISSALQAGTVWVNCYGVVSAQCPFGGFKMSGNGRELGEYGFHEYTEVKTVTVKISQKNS

Row | Molecule | ALDH1a1 inhibitory activity (in words) (ALDH1a1) | FAAH inhibitory activity (in words) (human FAAH (hFAAH)) | IC50 (μM) ± SE (hFAAH) (human FAAH (hFAAH); [1]) | also measured
1 | CC(=O)N[C@@H](CS)C(=O)O [5 N•Acetyl-i-Cysteine, N•Acetyl-i-Cysteine] | none of them showed any activity | – | – | ALDH2 inhibitory activity (in words) (ALDH2): none of them showed any activity
2 | bis(N-4-ethoxycarbonylbenzylethylthiocarbamoyl)disulphide [II-2l] | – | devoid of anti-FAAH activity | NI | –
3 | CC(C)N(C(=S)SSC(=S)N(C(C)C)C(C)C)C(C)C [Compound I-2h] | – | – | NI | –
4 | CCN(C)C(=S)SSC(=S)N(C)CC [Compound I-2g] | – | – | – | IC50 (ALDH1a1; Table I, mean of at least two independent experiments, read-out: IC50 (μM) ± SE (ALDH1a1)): 0.02 ± 0.01 µM; IC50 (ALDH2; Table I, mean of at least two independent experiments, read-out: IC50 (μM) ± SE (ALDH2)): 0.32 ± 0.04 µM
5 | CC(C)CN(CC(C)C)C(=S)SSC(=S)N(CC(C)C)CC(C)C [Compound I-2j] | complete loss of activity | no inhibition of FAAH | NI | fold decrease in MAGL inhibitory activity (human MAGL (hMAGL)): up to 15 fold
6 | CCN(Cc1ccc(C(=O)O)cc1)C(=S)SSC(=S)N(CC)Cc1ccc(C(=O)O)cc1 [Compound I-2d] | – | devoid of anti-FAAH activity | NI | change in ALDH1a1 inhibitory activity relative to I-2a (ALDH1a1; para carboxylic acid versus I-2a): tenfold decrease; fold decrease in MAGL inhibitory activity (human MAGL (hMAGL)): 20 fold
7 | CCN(Cc1ccc(C)cc1)C(=S)SSC(=S)N(CC)Cc1ccc(C)cc1 [III-2i, bis (N-4-Methylbenzyethylthiocarbamoyl) disulphide] | – | – | – | Aldh1a1 (IC50, μM) ± SE (ALDH1a1; Table III): No inhibition; Aldh2 (IC50, μM) ± SE (ALDH2; Table III): No inhibition
8 | CCN(CCC(=O)O)C(=S)SSC(=S)N(CC)CCC(=O)O [Compound I-2e, bis(N-carboxylethylethylthiocarbamoyl)disulfide] | – | – | – | IC50 (human FAAH (hFAAH); Table II, average of at least two different experiments, read-out: IC50 (μM) ± SE (hFAAH)): 122 ± 1.57 µM
9 | Cl.NCCS [3 Cysteamine•HCl, Cysteamine•HCl] | none of them showed any activity | – | – | ALDH2 inhibitory activity (in words) (ALDH2): none of them showed any activity
